Experimental data from patent US20130317215A1, “STABLE SYNTHETIC INTERMEDIATE AND METHOD FOR MANUFACTURING SAME” (KYORIN PHARMACEUTICAL CO., LTD., priority 2010, published 2013).
“Also recorded” adds a separate entry of the source.

Columns and labels:
[1] = Storage stability at room temperature, chemical purity by HPLC (Test Example 2); format: physicochemical
Protocol: The compounds (5) and (6) were each sealed in a glass bottle and stored at room temperature. At this time, the chemical purity of each compound was measured. After 6 weeks of storage and after 10 weeks of storage, the compound (5) was measured. After 19 months of storage, the compound (6) was measured. The chemical purity was represented by proportions of each compound and a degraded substance (compound (8)), calculated from area ratios measured by HPLC. HPLC measurement conditions are shown below. The chemical purity of the compound (6) was calculated on the basis of the peak of the compound (5).
Measurement wavelength: 220 nm
Column: TSKgel Octyl-80Ts, 4.6 mm I.D.×150 mm
Column temperature: 40° C.
Mobile phase A: acetonitrile
Mobile phase B: diluted phosphoric acid (1→1,000)

[2] = Change in physical properties during storage at room temperature (Test Example 1); format: physicochemical; conditions: for Physical properties, after 10 weeks: sealed in a glass bottle, stored at room temperature for 10 weeks
Excerpt: The compound (5) was sealed in a glass bottle and stored at room temperature for 10 weeks. The compound (6) was sealed in a glass bottle and stored at room temperature for 19 months.

Proportion of the compound degraded ([1]; after 10 weeks of storage at room temperature): ≥ 50% | HPLC purity, peak Compound (5), after 6 weeks ([1]; sealed glass bottle, room temperature, 6 weeks, HPLC area ratio): 94.1% | HPLC purity, peak Compound (5), after 10 weeks ([1]; sealed glass bottle, room temperature, 10 weeks, HPLC area ratio): 38.4% | Physical properties, in synthesis ([2]; compound (5), before storage): WHITE POWDER | Physical properties, after 10 weeks [2]: YELLOW SEMI-SOLID
SMILES: CCc1cc(OC)cc(N)c1C(=O)O [Compound (5)]
Physical properties, after 10 weeks ([2]; listed as compound (5)): the physical properties were changed; also recorded: yellow semi-solid
